These results are taken from EP2848693A1, “Concatenation of halogenated alkenyl diphosphate derivatives” (LANXESS Deutschland GmbH, priority 2013, dated 2015).

The target of the experiment is T1, MIUPPS (Micrococcus luteus, UniProt O82827).
T1 construct: poly-Histidin-Tag (His6) (N); made in house; host or cells: E. coli BL21 (DE3)
T1 sequence (O82827 1-249): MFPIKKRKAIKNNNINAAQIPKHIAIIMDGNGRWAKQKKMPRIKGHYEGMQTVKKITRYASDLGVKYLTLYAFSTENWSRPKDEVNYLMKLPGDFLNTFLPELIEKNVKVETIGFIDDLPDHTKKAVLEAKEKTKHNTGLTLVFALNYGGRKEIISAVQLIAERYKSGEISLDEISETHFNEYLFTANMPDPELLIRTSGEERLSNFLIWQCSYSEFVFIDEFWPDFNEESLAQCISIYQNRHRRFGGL
Kind of experiment: Prenyltransferase activity test, conversion of FPP with elongation substrate (MTP phosphate detection assay). The settings on record: 5 µM E,E-FPP, 200 µM elongation substrate, 50 µM enzyme, room temperature. The class given is biochemical. The method, then:
Die Aktivität der Prenyltransferasen wurde hinsichtlich der Umsetzung von Farnesyldiphosphat (FPP) als Startersubstrat und Isopentenyldiphosphat (IPP), und Cl-BPP bzw. Br-BPP mit Hilfe des MTP-Phosphatdetektionsassays bestimmt.
Cl-BPP und jeweils 50 µM Enzym bei Raumtemperatur durchgeführt. […] Cl-BPP gezeigt werden. Als Negativkontrolle diente ein Ansatz ohne Enzym (nicht gezeigt).

Structures are written as SMILES.

Regarding `C=C(Cl)CCOP(=O)(O)OP(=O)(O)O` [Cl-BPP, 3-Chlor-3-Butenyldiphosphat], the “Aktivität (Umsetzung von FPP mit Elongationssubstrat)” value was “im geringeren Maße”.
